Test results reported in publication PMC6759397 (Journal of pharmaceutical sciences, 2019).
Like-named read-outs stand apart in the source and are kept apart here.

Columns and labels:
OATP1B1 [1] = molecular target: T1, OATP1B1 (Homo sapiens, UniProt Q9Y6L6); details: read-out: reported Km for OATP1B1; HEK293 cells; cited from earlier work
T1 sequence (Q9Y6L6 1-691): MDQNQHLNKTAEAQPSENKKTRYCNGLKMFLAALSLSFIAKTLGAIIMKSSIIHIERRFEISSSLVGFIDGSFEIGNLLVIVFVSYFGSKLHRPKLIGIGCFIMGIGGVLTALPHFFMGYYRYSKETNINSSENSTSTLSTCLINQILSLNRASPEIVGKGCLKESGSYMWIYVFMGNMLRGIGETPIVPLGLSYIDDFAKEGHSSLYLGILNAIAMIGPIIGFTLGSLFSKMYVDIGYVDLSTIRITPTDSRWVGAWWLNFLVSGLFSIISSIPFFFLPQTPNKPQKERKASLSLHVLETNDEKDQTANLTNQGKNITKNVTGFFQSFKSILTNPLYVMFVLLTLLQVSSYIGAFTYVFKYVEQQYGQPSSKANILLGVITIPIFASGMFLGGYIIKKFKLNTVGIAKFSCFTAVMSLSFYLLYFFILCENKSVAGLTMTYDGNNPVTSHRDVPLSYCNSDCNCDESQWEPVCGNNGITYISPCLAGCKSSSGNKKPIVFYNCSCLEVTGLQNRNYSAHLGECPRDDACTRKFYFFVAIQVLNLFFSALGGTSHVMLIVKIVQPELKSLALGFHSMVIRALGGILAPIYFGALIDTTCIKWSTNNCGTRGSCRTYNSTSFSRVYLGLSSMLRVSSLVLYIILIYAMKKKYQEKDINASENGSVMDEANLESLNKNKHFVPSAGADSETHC

OATP1B3 [2] = molecular target: T2, OATP1B3 (Homo sapiens, UniProt Q9NPD5); details: cited from earlier work
T2 sequence (Q9NPD5 1-702): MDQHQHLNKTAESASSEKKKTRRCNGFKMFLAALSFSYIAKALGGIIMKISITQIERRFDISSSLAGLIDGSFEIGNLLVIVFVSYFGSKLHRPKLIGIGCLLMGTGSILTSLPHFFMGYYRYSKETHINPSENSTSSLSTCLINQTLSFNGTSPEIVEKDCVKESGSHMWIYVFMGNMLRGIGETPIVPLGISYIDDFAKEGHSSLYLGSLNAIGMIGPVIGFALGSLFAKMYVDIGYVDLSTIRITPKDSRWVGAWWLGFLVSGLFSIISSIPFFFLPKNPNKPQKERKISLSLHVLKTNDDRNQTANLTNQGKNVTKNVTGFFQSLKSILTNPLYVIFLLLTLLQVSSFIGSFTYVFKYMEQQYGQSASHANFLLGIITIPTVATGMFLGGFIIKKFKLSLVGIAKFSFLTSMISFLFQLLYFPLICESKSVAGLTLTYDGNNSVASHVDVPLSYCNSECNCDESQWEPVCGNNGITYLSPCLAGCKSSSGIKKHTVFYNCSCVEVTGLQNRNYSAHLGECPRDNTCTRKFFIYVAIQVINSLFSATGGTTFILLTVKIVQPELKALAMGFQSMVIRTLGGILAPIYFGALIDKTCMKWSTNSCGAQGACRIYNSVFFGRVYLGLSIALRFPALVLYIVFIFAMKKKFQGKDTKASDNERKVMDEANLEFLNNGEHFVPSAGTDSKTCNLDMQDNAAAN

mTOR C1 = experiment: Immunoblot of phosphorylated p70S6K; format: cell-based, human; details: 1 h pre-incubation: EVR 0.2 µM, SIR 0.5 µM, INK-128 10 µM; vs vehicle control
OATP1B1 [3] = molecular target: T1, OATP1B1; details: for OATP1B1-mediated transport ([3H]-E217βG accumulation): 1 h pre-incubation alone: EVR 0.2 µM, SIR 0.5 µM, INK-128 10 µM; for OATP1B1-mediated transport of [3H]-E1S after pre-incubation / OATP1B1-mediated transport of [3H]-rosuvastatin after pre-incubation: 1 h pre-incubation, EVR 0.1 or 0.2–10 µM, SIR 0.1–5 µM, 0.5 min, concentration-dependent, p<0.001; for OATP1B1-mediated transport of [3H]-E1S after pre-incubation: E1S 25 nM; for OATP1B1-mediated transport of [3H]-rosuvastatin after pre-incubation: rosuvastatin 20 nM
OATP1B3 [4] = molecular target: T2, OATP1B3; experiment: Inhibition of OATP1B3-mediated [3H]-CCK-8 transport in HEK293-OATP1B3 cells; format: cell-based; details: washing; for OATP1B3-mediated transport ([3H]-CCK-8 accumulation): 1 h pre-incubation alone: EVR 0.2 µM, SIR 0.5 µM, INK-128 10 µM; for OATP1B3-mediated [3H]CCK-8 accumulation: 1 h pre-incubation with EVR 0.2 µM
mTOR C2 = experiment: Immunoblot of phosphorylated AKT; format: cell-based, human; details: 1 h pre-incubation: EVR 0.2 µM, SIR 0.5 µM, INK-128 10 µM; vs vehicle control
OATP1A2 = details: cited from earlier work
HEK293-OATP1B3 = details: 1 h pre-incubation, EVR 0.001–10 µM, SIR 0.01–5 µM
OATP1B1 [5] = molecular target: T1, OATP1B1; experiment: Transport kinetics of OATP1B1-mediated E217βG transport in HEK293 cells; format: cell-based; details: co-incubation with 5 µM inhibitor, without pre-incubation
CYP3A5 = details: cited from earlier work
HEK293-OATP1B1 = experiment: LDH assay; format: cell-based, human; details: 1 h pre-incubation, EVR 0.001–10 µM, SIR 0.01–5 µM
P-gp = details: Caco-2 monolayers; cited from earlier work
CYP3A4 = details: cited from earlier work
[6] = human erythrocytes, blood concentration range 5–100 ng/ml; cited from earlier work
OATP1B1 [7] = molecular target: T1, OATP1B1; details: substrate E1S; without pre-incubation; cited from earlier work
[8] = cited from earlier work
OATP1B1 [9] = molecular target: T1, OATP1B1; experiment: Static R-value model for OATP1B1-mediated DDI
[10] = cited from earlier work; remark: listed apart in the source
[11] = IC50, [3H]-E1S (25 nM, 0.5 min), co-incubation
[12] = IC50, [3H]-E1S (25 nM, 0.5 min), pre+co-incubation (1 h pre-incubation)
[13] = IC50, [3H]-E217βG (1 µM, 2 min), co-incubation
[14] = IC50, [3H]-E217βG (1 µM, 2 min), pre+co-incubation (1 h pre-incubation)
[15] = IC50, [3H]-rosuvastatin (20 nM, 0.5 min), co-incubation
[16] = IC50, [3H]-rosuvastatin (20 nM, 0.5 min), pre+co-incubation (1 h pre-incubation)
[17] = from co-incubation IC50, rosuvastatin
[18] = from pre+co-incubation IC50, E217βG
[19] = from pre+co-incubation IC50, rosuvastatin

Molecule	Km (OATP1B1 [1])	amount of phosphorylated p70S6K at T389 (mTOR C1)	OATP1B1-mediated transport ([3H]-E217βG accumulation) (OATP1B1 [3]; washing)	OATP1B3-mediated transport ([3H]-CCK-8 accumulation) (OATP1B3 [4])	phosphorylation of AKT at S473 (mTOR C2)	inhibition of OATP1A2 (OATP1A2)	toxicity (LDH assay) (HEK293-OATP1B3)	effect on Vmax of OATP1B1 (OATP1B1 [5])	increase of Km of OATP1B1 (OATP1B1 [5])	OATP1B1-mediated transport of [3H]-E1S after pre-incubation (OATP1B1 [3])	OATP1B1-mediated transport of [3H]-rosuvastatin after pre-incubation (OATP1B1 [3])	IC50 (OATP1B1 [3]; [11])	IC50 (OATP1B1 [3]; [12])	IC50 (OATP1B1 [3]; [13])	IC50 (OATP1B1 [3]; [14])	IC50 (OATP1B1 [3]; [15])	IC50 (OATP1B1 [3]; [16])	toxicity (LDH assay) (HEK293-OATP1B1)	IC50 (OATP1B1 [7])	R (OATP1B1 [9]; [17])	also measured
C[C@]12CC[C@@H]3c4ccc(OS(=O)(=O)O)cc4CC[C@H]3[C@@H]1CCC2=O [E1S, estrone-3-sulfate]	0.46 µM	–	–	–	–	–	–	–	–	–	–	–	–	–	–	–	–	–	–	–	–
C[C@]12CC[C@@H]3c4ccc(O)cc4CC[C@H]3[C@@H]1CC[C@@H]2O[C@@H]1O[C@H](C(=O)O)[C@@H](O)[C@H](O)[C@H]1O [E217βG, estradiol 17 β-D-glucuronide]	8.29 µM	–	–	–	–	–	–	–	–	–	–	–	–	–	–	–	–	–	–	–	–
cholecystokinin 8 [CCK-8]	–	–	–	–	–	–	–	–	–	–	–	–	–	–	–	–	–	–	–	–	Km (OATP1B3 [2]): 3.8 µM
CC(C)n1nc(-c2ccc3oc(N)nc3c2)c2c(N)ncnc21 [INK-128]	–	markedly reduced	did not significantly affect	did not significantly affect	markedly reduced	–	–	–	–	–	–	–	–	–	–	–	–	–	–	–	–
CO[C@H]1C[C@@H]2CC[C@@H](C)[C@@](O)(O2)C(=O)C(=O)N2CCCC[C@H]2C(=O)O[C@H]([C@H](C)C[C@@H]2CC[C@@H](OCCO)[C@H](OC)C2)CC(=O)[C@H](C)/C=C(\C)[C@@H](O)[C@@H](OC)C(=O)[C@H](C)C[C@H](C)/C=C/C=C/C=C/1C [EVR, everolimus]	–	markedly reduced	0.67 ± 0.02 fold of control	0.60 ± 0.03 fold of control	did not inhibit	inhibit	negligible toxicity	1.2–1.7 fold vs. CTL	6–10 fold	significantly decreased	significantly decreased	610 ± 80 nM	160 ± 20 nM	480 ± 70 nM	230 ± 60 nM	1580 ± 920 nM	190 ± 70 nM	negligible toxicity	4100 ± 1100 nM	1.03 (1.02–1.09)	Ki (OATP1B1 [3]): 22 nM; OATP1B1-mediated rosuvastatin accumulation (OATP1B1 [3]; 1 h pre-incubation with EVR 0.2 µM, washing, 4 h in fresh EVR-free medium): 0.87 ± 0.03 fold of CTL; OATP1B1-mediated transport of [3H]rosuvastatin (OATP1B1 [3]; after 1 h pre-incubation with EVR 0.2 µM, washing): 0.54 ± 0.07 fold of control; Ki (CYP3A5; CYP3A5): 90 nM; fu,mic (CYP3A5): 0.14; OATP1B3-mediated [3H]CCK-8 accumulation (OATP1B3 [4]; 4 h in EVR-free medium): 0.76 ± 0.04 fold of CTL; OATP1B3-mediated [3H]CCK-8 accumulation (OATP1B3 [4]; 6 h in EVR-free medium): 0.73 ± 0.04 fold of CTL; OATP1B3-mediated [3H]CCK-8 accumulation (OATP1B3 [4]; 22 h in EVR-free medium): 0.81 ± 0.06 fold of CTL; OATP1B3-mediated transport of [3H]CCK-8 (OATP1B3 [4]; after 1 h pre-incubation with EVR 0.2 µM): 0.76 ± 0.05 fold of control; basolateral-to-apical vs apical-to-basolateral transport (P-gp): ~ 20 fold; Ki (CYP3A4; CYP3A4): 90 nM; fu,mic (CYP3A4): 0.14; erythrocyte binding [6]: approximately 85%; Compound type [8]: Neutral; R (OATP1B1 [9]; [18]): 1.19 (1.16–1.26); R (OATP1B1 [9]; [19]): 1.23 (1.10–1.42); Vss [10]: 1.55 (CV 36.0%) L/kg; steady-state AUC vs single dose AUC [10]: approximately 1.5 fold higher; time to steady state ([10]; multiple doses, 10 mg daily): around 7 days
CO[C@H]1C[C@@H]2CC[C@@H](C)[C@@](O)(O2)C(=O)C(=O)N2CCCC[C@H]2C(=O)O[C@H]([C@H](C)C[C@@H]2CC[C@@H](O)[C@H](OC)C2)CC(=O)[C@H](C)/C=C(\C)[C@@H](O)[C@@H](OC)C(=O)[C@H](C)C[C@H](C)/C=C/C=C/C=C/1C [SIR, sirolimus]	–	markedly reduced	0.60 ± 0.05 fold of control	0.49 ± 0.03 fold of control	did not inhibit	inhibit	negligible toxicity	1.2–1.7 fold vs. CTL	6–10 fold	significantly decreased	significantly decreased	830 ± 100 nM	650 ± 120 nM	640 ± 160 nM	220 ± 40 nM	560 ± 300 nM	320 ± 110 nM	negligible toxicity	9800 ± 1100 nM	1.00 (1.00–1.03)	R (OATP1B1 [9]): 1.00 (1.00–1.01); R (OATP1B1 [9]; [18]): 1.01 (1.01–1.02); R (OATP1B1 [9]; [19]): 1.01 (1.01–1.03); R (OATP1B1 [9]; from the previously published co-incubation IC50 (E1S, ref 24)): 1.00; time to steady state ([10]; multiple twice daily doses of 0.5–6.5 mg/m^2, stable renal transplant patients): 5 to 7 days
